Test results taken from patent US20050282869A1, “Use of a compound in the treatment of sleep disorders and the like, in providing refreshedness on waking and a method for the treatment of grogginess therewith” (priority 2001, published 2005).

Key:
[1] = tested on: patients with temporary sleep disturbance; assay: Clinical trial: wrist actimetry (SDI, time to sleep onset); assay type: in vivo, human
Excerpt: (§1) The efficacy of triprolidine in enabling a patient to feel refreshed or alert upon waking after taking triprolidine prior to sleeptime was investigated using patients with a history of sleep disorders and utilising triprolidine prepared in accordance with example 3.
(§2) The study herein utilised the following determination methods:— • (a) Karolinska scale as defined in: Int. J. Neuroscience 52 29-37 (1990); and validation: Sleep 17 (3) 236-41 (1994) • (b) Loughborough Sleep log as defined in: Sleep 17 (2)146-159 (1994); and Sleep 18 (2) 127-134 (1995) • (c) Actimetry—AW4 actimeters (Cambridge Neurotechnology) were worn continuously throughout the study. A button was pressed at night when the subject desired to go to sleep and again in the morning upon waking. The results of the actimeter study were analysed in the manner defined by Home et al (Sleep, 17(2); 146-159).
SDI % was calculated as follows:— [formula]
This is the measure of: • 1. The length of time it took to fall asleep • 2. Any awakenings throughout the sleep period • Expressed as a % of total time spent in bed. Study Objectives • To evaluate the effects of two doses of triprolidine compared with placebo. Study Design
(§3) A multiple-dose, placebo-controlled, parallel-group, double-blind, randomised study investigating the effects of 2.5 mg and 5 mg triprolidine in patients with temporary sleep disturbance.
(§4) Male and Female candidates aged 18 years and above were recruited to one of five research centres by means of local advertising. Candidates were screened by means of a telephone questionnaire and selected candidates invited for interview at the research centre. Key inclusion criteria used to select candidates for the study were: • A record of poor sleep at least 2 nights per week • A record of poor sleep for at least 1 week but not more than 3 months • Sleep disturbance not caused by underlying disease • No excess use of alcohol or drugs • Sleep disturbance affected daytime functioning
(§5) The candidates came to the research centre on Thursday or Friday and were fitted with a wrist actimeter (AW4 from Cambridge Technology) to establish a baseline measure for SDI and were provided with diary cards to record subjective assessments for the Loughborough Sleep Log and the Karolinska Sleepiness Scale. They returned to the investigational site on the Monday and were issued with the study compositions (2.5 mg triprolidine, 5 mg triprolidine or placebo). The investigator telephoned a central randomisation centre where the subject was randomised to a particular treatment group using a dynamic balanced randomisation algorithm. The subject was given three doses of their allocated study medication and instructed to take a single dose of two tablets 20 minutes before they intended to go to sleep on three consecutive evenings, commencing that evening. The diary cards for the Loughborough Sleep Log and Karolinska Sleepiness Scale were asked to be completed on waking.
(§6) 198 candidates completed the study, of whom 178 provided evaluable data. (61 placebo, 60 on 2.5 mg triprolidine and 57 on 5 mg triprolidine. The subjects on 2.5 mg dose took one tablet and placebo those on 5 mg dose took 2×2.5 mg tablets. The subjects on placebo took a dose to match the active treatments (2 tablets).
The study design used 3 groups. On average, the number of individuals in each of the 3 groups (placebo, 2.5 mg triprolidine and 5 mg triprolidine) was 60±10 patients.
In the trial, patients were tested during a seven day period and the results have been analysed for a mean of three days in the middle of this period. The effects of triprolidine at dose level 2.5 mg and 5.0 mg are compared with placebo in table 1.
Generally the treatment groups were well balanced in terms of the demographic data. Unless otherwise mentioned all group data was analysed using ANOVA. […]

[2] = tested on: patients with temporary sleep disturbance; assay: Clinical trial: Loughborough sleep log questionnaire; assay type: in vivo, human; conditions: for Loughborough Sleep Log: Awoke Very Refreshed or Refreshed Responses, %: % of patients
Excerpt: as §1, §2, §3, §4, §5
Candidates were required to complete a questionnaire 15 minutes after awaking on the feeling of refreshedness assessed on a 5-point scale, the Loughborough sleep log.
as §6
Generally the treatment groups were well balanced in terms of the demographic data. Unless otherwise mentioned all group data was analysed using ANOVA. In two cases, namely, how the patient felt 15 minutes after awakening in the Loughborough Sleep Log and the Karolinska Sleepiness Scale at 20 minutes, the two variables were analysed using ANCOVA by including the weekend and the mean of Friday/Saturday/Sunday night as a covariate. The method was a closed test procedure (Williams' test). Each of the tests were to be conducted at the 5% level. The analysis of the secondary endpoints was similarly conducted using the Student's t-tests on parameter estimates taken from the analysis of variance model presented above. […]

[3] = tested on: patients with temporary sleep disturbance; assay: Clinical trial: Karolinska 9-point sleepiness scale; assay type: in vivo, human; conditions: for Karolinska 9-point scale (a) I feel extremely alert, very alert or alert, %: scales 1, 2 or 3
Excerpt: as §1, §2, §3, §4, §5
A daytime sleepiness assessment was also made 20 minutes, 2 hours and 4 hours after awaking on the Karolinska 9-point scale, ie. the sleepiness scale.
as §6
Generally the treatment groups were well balanced in terms of the demographic data. Unless otherwise mentioned all group data was analysed using ANOVA. In two cases, namely, how the patient felt 15 minutes after awakening in the Loughborough Sleep Log and the Karolinska Sleepiness Scale at 20 minutes, the two variables were analysed using ANCOVA by including the weekend and the mean of Friday/Saturday/Sunday night as a covariate. The method was a closed test procedure (Williams' test). Each of the tests were to be conducted at the 5% level. The analysis of the secondary endpoints was similarly conducted using the Student's t-tests on parameter estimates taken from the analysis of variance model presented above.
Karolinska's sleepiness scale is set out below and the results for placebo, 2.5 and 5.0 mg doses of triprolidine are shown in tables 4 and 5. […]

[4] = tested on: volunteers; conditions: single doses 10 mg or 20 mg sustained release at bedtime; cited from earlier work
[5] = 2.5 mg, mean of the 3 nights, p<0.05
[6] = both treatments (2.5 mg and 5 mg), every treatment night

Structure (SMILES): Cc1ccc(/C(=C\CN2CCCC2)c2ccccn2)cc1 [triprolidine]
- SDI (%) (Sleep latency onset and Quality of sleep) (Actimeter), Mean ([1]; 2.5 mg dose 20 min before sleep, Mon): 11.33%
- SDI (%) (Sleep latency onset and Quality of sleep) (Actimeter), Mean ([1]; 2.5 mg dose, Mean of 3): 11.56%
- TTSO (min) (Time to Sleep onset) (Actimeter), Mean ([1]; 2.5 mg dose, Mean of 3): 15.53 min
- TTSO (min) (Time to Sleep onset) (Actimeter), Mean ([1]; 2.5 mg dose, Mon): 16.22 min
- SDI (%) (Sleep latency onset and Quality of sleep) (Actimeter), Mean ([1]; 2.5 mg dose, Tues): 12.15%
- TTSO (min) (Time to Sleep onset) (Actimeter), Mean ([1]; 2.5 mg dose, Tues): 15.62 min
- SDI (%) (Sleep latency onset and Quality of sleep) (Actimeter), Mean ([1]; 2.5 mg dose, Wed): 11.2%
- SDI compared to placebo ([1]; 2.5 mg, mean of the 3 nights, p<0.01): significantly reduced
- sleep latency onset compared to placebo [1, 5]: reduced
- SDI (%) (Sleep latency onset and Quality of sleep) (Actimeter), Mean ([1]; 5 mg dose, Mean of 3): 12.23%
- TTSO (min) (Time to Sleep onset) (Actimeter), Mean ([1]; 5 mg dose, Mean of 3): 16.93 min
- SDI (%) (Sleep latency onset and Quality of sleep) (Actimeter), Mean ([1]; 5 mg dose, Mon): 11.72%
- TTSO (min) (Time to Sleep onset) (Actimeter), Mean ([1]; 5 mg dose, Mon): 16.16 min
- SDI (%) (Sleep latency onset and Quality of sleep) (Actimeter), Mean ([1]; 5 mg dose, Tues): 12.71%
- TTSO (min) (Time to Sleep onset) (Actimeter), Mean ([1]; 5 mg dose, Tues): 17.88 min
- SDI (%) (Sleep latency onset and Quality of sleep) (Actimeter), Mean ([1]; 5 mg dose, Wed): 11.81%
- TTSO (min) (Time to Sleep onset) (Actimeter), Mean ([1]; 5 mg dose, Wed): 16.36 min
- SDI compared with placebo [1, 6]: reduced
- sleep latency onset compared with placebo [1, 6]: reduced
- no of times woke up (Loughborough sleep log), Mean ([2]; 2.5 mg dose, Mean of 3): 1.22
- time to fall asleep (min) (Loughborough sleep log), Mean ([2]; 2.5 mg dose, Mean of 3): 23.93 min
- no of times woke up (Loughborough sleep log), Mean ([2]; 2.5 mg dose, Mon): 1.18
- time to fall asleep (min) (Loughborough sleep log), Mean ([2]; 2.5 mg dose, Mon): 23.67 min
- Loughborough Sleep Log: Awoke Very Refreshed or Refreshed Responses, % ([2]; 2.5 mg dose, Monday): 23%
- no of times woke up (Loughborough sleep log), Mean ([2]; 2.5 mg dose, Tues): 1.37
- time to fall asleep (min) (Loughborough sleep log), Mean ([2]; 2.5 mg dose, Tues): 24.44 min
- Loughborough Sleep Log: Awoke Very Refreshed or Refreshed Responses, % ([2]; 2.5 mg dose, Tuesday): 23%
- no of times woke up (Loughborough sleep log), Mean ([2]; 2.5 mg dose, Wed): 1.11
- time to fall asleep (min) (Loughborough sleep log), Mean ([2]; 2.5 mg dose, Wed): 20.95 min
- feeling of refreshedness 15 minutes after waking vs placebo (Loughborough sleep log) [2, 5]: more refreshed
- no of times woke up (Loughborough sleep log), Mean ([2]; 5 mg dose, Mean of 3): 1.42
- time to fall asleep (min) (Loughborough sleep log), Mean ([2]; 5 mg dose, Mean of 3): 26.5 min
- no of times woke up (Loughborough sleep log), Mean ([2]; 5 mg dose, Mon): 1.49
- time to fall asleep (min) (Loughborough sleep log), Mean ([2]; 5 mg dose, Mon): 22.02 min
- no of times woke up (Loughborough sleep log), Mean ([2]; 5 mg dose, Tues): 1.42
- time to fall asleep (min) (Loughborough sleep log), Mean ([2]; 5 mg dose, Tues): 32.08 min
- Loughborough Sleep Log: Awoke Very Refreshed or Refreshed Responses, % ([2]; 5 mg dose, Tuesday): 8.2%
- no of times woke up (Loughborough sleep log), Mean ([2]; 5 mg dose, Wed): 1.39
- time to fall asleep (min) (Loughborough sleep log), Mean ([2]; 5 mg dose, Wed): 24.24 min
- Loughborough Sleep Log: Awoke Very Refreshed or Refreshed Responses, % ([2]; 5 mg dose, Wednesday): 14.8%
- individuals with response of sleeping extremely well or very well (morning log of the Loughborough sleep log) ([2]; dose not stated): over 35%
- (b) I feel (i) sleepy, [and need to make] some effort or (ii) very sleepy, a great effort to keep awake, % ([3]; 2.5 mg dose, Wednesday, Karolinska scales 8 and 9, on waking): 6.5%
- Karolinska 9-point scale (a) I feel extremely alert, very alert or alert, % ([3]; 2.5 mg dose, Wednesday, on waking): 21.0%
- percentage of people feeling alert, very alert or extremely alert on waking vs placebo (Karolinska log) ([3]; 2.5 mg, mean of the 3 nights): greater percentage
- percentage of people feeling sleepy or very sleepy on waking vs placebo (Karolinska log) ([3]; 2.5 mg, mean of the 3 nights): lower percentage
- residual hangover effects/morning grogginess ([3]; 2.5 mg, mean of the 3 nights): no evidence of residual hangover effects/morning grogginess
- Karolinska 9-point scale (a) I feel extremely alert, very alert or alert, % ([3]; 5 mg dose, Monday, on waking): 6.3%
- Karolinska 9-point scale (a) I feel extremely alert, very alert or alert, % ([3]; 5 mg dose, Tuesday, on waking): 9.5%
- sleep onset latency compared with placebo [4]: did not significantly alter
- total sleep time compared with placebo [4]: no effect
- wakefulness during sleep compared with placebo [4]: no effect
